Patent US5321045A, “Method and composition for the treatment of imflammatory conditions using thiosulphinic acid derivatives” (Boehringer Mannheim GmbH, priority 1987, dated 1994)

How the values were obtained:
[1] = system: thromboxane biosynthesis of thrombin-stimulated platelet-rich plasma; assay: Inhibition of the thromboxane biosynthesis of thrombin-stimulated platelet-rich plasma; type: cell-based, human; conditions: 0.001 mg/ml to 1.0 mg/ml, 15 min
Method: The enzyme-inhibiting action of the compounds were determined in vitro; use of the mixture of compounds 1) and 2).
From a human donor was obtained platelet-rich plasma by the usual method and adjusted to a platelet count of […]. This plasma was incubated either with a solvent (1% dimethyl sulphoxide (DMSO) -physiological common salt solution) or with various concentrations of the compounds (s. Table II).
5 Minutes later, the platelets were stimulated with thrombin (1 or 10 International Units=I.U.) at 37° C. After 15 minutes, the reaction was stopped with ice-cold methanol (volume ratio 1:1), thereafter separated by 10 minutes centrifuging at 3000 U/min. (4° C.).

[2] = system: allergen-induced asthma bronchiale; assay: Protective action in allergen-induced asthma bronchiale of guinea pigs (ovalbumin inhalation); type: in vivo; conditions: FIGS. 4-6; dosage as in 1a); ovalbumin one percent, twice
Method: 1. Investigation of the asthma-protective action of compounds in vivo. There was used a mixture of compound 1) (identical with formula III on p.13 of the German text) and compound 2) (identical with formula IV on p.13 of the German text). The ratio of 1): 2) amounted to about 1:2.
For the investigation of the asthma-protective action in vivo, corresponding experiments were carried out with guinea pigs (Dorsch W. et al., Pflugers Arch. 391, page 263 (1981).
9 guinea pigs were--was described under 1a)--corresponding to a randomised crossover protocol, either fed with the active component in olive oil or with the carrier olive oil alone. The dosage of the administered compound amounted to 20 mg./kg. body weight. 30 Minutes later, the animals inhaled twice, at an interval of 10 minutes, in each case for 20 seconds, a one percent ovalbumin solution, the substance to which they had been sensitised 3 weeks previously. The extent of the resulting bronchial obstruction was also determined whole body plethysmographically in 2 minute intervals for the period of twice 10 minutes (for the method see: Dorsch W, Walter O., Rosmanith J.: Continuous Recording of Intrapulmonary "Compressed Air" as a Sensitive Noninvasive Method of Measuring Branchial Obstruction in Guinea Pigs, Pflugers Arch. 391: 236-241 (1981)). […]

SMILES | maximum dosage-dependent suppression of the thromboxane B2 biosynthesis [1] [%] | Asthmatic reaction to the inhalation of an antigen [2]
CS[S+](C)[O-] (stereo not shown) [compound 3, methylthiosulphinic acid methyl ester] | 61 | clearly weaken the asthmatic reaction
[O-][S+](Sc1ccccc1)c1ccccc1 (stereo not shown) [compound 4, phenylthiosulphinic acid phenyl ester] | 76 | clearly weaken the asthmatic reaction
